Test results published in US12139520B2 (priority 2020, dated 2024).
Read-outs that look alike come from different tables or passages of the source. Bridge positions count the residues as written; N and C are the ends. Square brackets hold non-standard residues; d marks the D form. Peptide text beside a SMILES is read from it. Hyp = O=C(O)[C@@H]1C[C@@H](O)CN1; Cit = NC(=O)NCCC[C@H](N)C(=O)O

Legend:
[1] = Physical stability of peptide analogues (Thioflavin T fibrillation); assay type: physicochemical; settings: maximum ThT signal normalized between hAMY maximum and buffer background; 40° C., shaking, four days; pH 7 per table title
Outline: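 Maximum ThT emission at 480 nm, after LOESS smoothing, is given as percent of the span from buffer background to hAMY. Conditions: 50 mM buffer at pH 4 or 7, 4 μM dye, 40 °C, repeated shaking, readings every 10 min for four days.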

hAM1 receptor = hAM1 receptor (Homo sapiens, UniProt O60895+Q16602); assay: cAMP assay for in vitro receptor activation, hAM1-R; assay type: cell-based; settings: for EC50: read-out: hAM1R EC50
hAM1 receptor, sequence (Q16602 23-461): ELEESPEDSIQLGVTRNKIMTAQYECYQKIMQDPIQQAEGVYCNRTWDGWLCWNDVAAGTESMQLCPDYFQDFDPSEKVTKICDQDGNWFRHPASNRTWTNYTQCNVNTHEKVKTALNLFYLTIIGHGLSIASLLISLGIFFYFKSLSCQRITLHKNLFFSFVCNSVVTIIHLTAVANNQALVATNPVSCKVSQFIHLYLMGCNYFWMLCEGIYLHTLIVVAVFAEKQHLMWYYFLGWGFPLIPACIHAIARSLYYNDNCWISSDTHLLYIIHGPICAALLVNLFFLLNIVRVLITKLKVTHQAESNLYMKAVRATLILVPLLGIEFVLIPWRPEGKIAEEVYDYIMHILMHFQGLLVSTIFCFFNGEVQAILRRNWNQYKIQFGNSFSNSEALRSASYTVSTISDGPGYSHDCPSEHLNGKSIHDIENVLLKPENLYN
hAM1 receptor, sequence (O60895 43-175 partner): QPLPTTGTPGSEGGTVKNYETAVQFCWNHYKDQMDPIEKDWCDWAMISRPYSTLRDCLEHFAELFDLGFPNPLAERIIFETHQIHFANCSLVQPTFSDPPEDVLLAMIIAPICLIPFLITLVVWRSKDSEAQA
Outline: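 cAMP accumulation was measured in a monoclonal cell line stably overexpressing the hAM1 receptor. Frozen aliquots were thawed and plated at 8000 cells/well in DPBS containing 0.05% casein and 0.5 mM IBMX.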

hAMY3 receptor = molecular target: T1, hAMY3 receptor (Homo sapiens, UniProt O60896+P30988); assay: cAMP assay for in vitro receptor activation, hAMY3-R; assay type: cell-based; settings: for EC50: read-out: hAMY3R EC50
T1 sequence (P30988 25-474): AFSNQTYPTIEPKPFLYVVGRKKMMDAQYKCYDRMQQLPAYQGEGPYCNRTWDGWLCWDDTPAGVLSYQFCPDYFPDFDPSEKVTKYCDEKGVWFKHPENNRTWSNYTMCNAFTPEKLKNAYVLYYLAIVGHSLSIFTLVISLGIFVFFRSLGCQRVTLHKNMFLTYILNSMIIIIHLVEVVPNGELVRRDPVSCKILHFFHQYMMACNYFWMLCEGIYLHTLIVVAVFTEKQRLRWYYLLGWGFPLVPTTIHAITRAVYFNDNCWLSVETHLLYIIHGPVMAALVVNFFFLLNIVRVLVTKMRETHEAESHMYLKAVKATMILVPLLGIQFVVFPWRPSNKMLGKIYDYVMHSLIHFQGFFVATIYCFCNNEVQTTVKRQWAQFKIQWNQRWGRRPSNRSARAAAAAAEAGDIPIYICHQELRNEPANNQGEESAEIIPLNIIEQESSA
T1 sequence (O60896 24-148 partner): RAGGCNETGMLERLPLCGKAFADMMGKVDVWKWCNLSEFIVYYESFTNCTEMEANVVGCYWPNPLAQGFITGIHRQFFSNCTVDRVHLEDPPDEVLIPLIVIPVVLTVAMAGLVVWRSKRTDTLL
Outline: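 Monoclonal cell line stably overexpressing human AMY3 receptor, 2000 cells/well in DPBS with 0.05% casein and 0.5 mM IBMX. Stimulated 30 min at room temperature with graded compound doses, human amylin as positive control. cAMP accumulation read by TR-FRET after one hour.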

| Max ThT signal (%) [1] [%] | EC50 (hAM1 receptor; cAMP assay, hAM1 receptor) [nM] | EC50 (hAMY3 receptor; cAMP assay, hAMY3 receptor) [nM] | EC50 (hAM1 receptor; cAMP accumulation, cells stably overexpressing hAM1 receptor, 30 min stimulation) [nM] | decrease of potency on AM1R compared to hAM15-52 (hAM1 receptor; relative to SEQ ID NO: 1) | EC50 (hAMY3 receptor; cAMP accumulation, cells stably overexpressing hAMY3 receptor, 30 min stimulation) [nM] | improvement of potency on AMY3R compared to hAM15-52 (hAMY3 receptor; relative to SEQ ID NO: 1) | Compound |
| --- | --- | --- | --- | --- | --- | --- | --- |
| 17.100 | > 5000 | 0.035 | – | – | – | – | CC[C@H](C)[C@H](NC(=O)[C@H](CCC(N)=O)NC(=O)[C@H](Cc1c[nH]cn1)NC(=O)[C@H](C)NC(=O)[C@H](CC(C)C)NC(=O)[C@H](CCCNC(N)=O)NC(=O)[C@H](CCC(N)=O)NC(=O)[C@@H](NC(=O)[C@@H](NC(=O)[C@@H]1CSSC[C@H](NC(=O)CN)C(=O)N[C@@H](CCCNC(=N)N)C(=O)N[C@@H](Cc2ccccc2)C(=O)NCC(=O)N[C@@H]([C@@H](C)O)C(=O)N1)[C@@H](C)O)C(C)C)C(=O)N[C@@H](Cc1ccc(O)cc1)C(=O)N[C@@H](CCC(N)=O)C(=O)N[C@@H](Cc1ccccc1)C(=O)N[C@H](C(=O)N[C@@H](CC(=O)O)C(=O)N[C@@H](CCCCN)C(=O)N[C@@H](CC(=O)O)C(=O)N[C@@H](CCCCN)C(=O)N[C@@H](CC(=O)O)C(=O)N[C@@H](CC(N)=O)C(=O)N[C@H](C(=O)N[C@@H](C)C(=O)N1CCC[C@H]1C(=O)N[C@@H](CCCNC(=N)N)C(=O)N[C@H](C(=O)N[C@@H](CC(N)=O)C(=O)N[C@H](C(=O)N[C@@H](CO)C(=O)N1CCC[C@H]1C(=O)N[C@@H](CCC(N)=O)C(=O)NCC(=O)N1C[C@H](O)C[C@H]1C(N)=O)C(C)C)[C@@H](C)O)C(C)C)[C@@H](C)O [compound 283] (H-GCRFGTCTVQ[Cit]LAHQIYQFTDKDKDNVAPRTNVSPQG[Hyp]-NH2; disulfide 2-7; N-terminus assumed) |
| 3.000 | > 5000 | 0.003 | – | – | – | – | CC[C@H](C)[C@H](NC(=O)[C@H](CCC(N)=O)NC(=O)[C@H](CC(=O)O)NC(=O)[C@H](C)NC(=O)[C@H](CC(C)C)NC(=O)[C@H](Cc1c[nH]c2ccccc12)NC(=O)[C@H](C)NC(=O)[C@@H](NC(=O)[C@@H](NC(=O)[C@@H]1CSSC[C@H](NC(=O)[C@@H](N)CCCCN)C(=O)N[C@@H](CC(N)=O)C(=O)N[C@@H]([C@@H](C)O)C(=O)N[C@@H](CO)C(=O)N[C@@H]([C@@H](C)O)C(=O)N1)[C@@H](C)O)C(C)C)C(=O)N[C@H](C(=O)N[C@@H](CCC(N)=O)C(=O)N[C@@H](Cc1ccccc1)C(=O)N[C@@H](CO)C(=O)N[C@@H](CC(N)=O)C(=O)N[C@@H](CCCCN)C(=O)N[C@@H](CC(=O)O)C(=O)N[C@@H](CCCCN)C(=O)N[C@@H](C)C(=O)N[C@@H](CCC(N)=O)C(=O)N[C@H](C(=O)N[C@@H](CO)C(=O)N1CCC[C@H]1C(=O)N1CCC[C@H]1C(=O)N[C@H](C(=O)N[C@@H](CCC(=O)O)C(=O)N[C@H](C(=O)NCC(=O)N1CCC[C@H]1C(=O)N[C@@H](CC(N)=O)C(=O)N[C@@H](CO)C(=O)N1C[C@H](O)C[C@H]1C(N)=O)C(C)C)[C@@H](C)O)C(C)C)[C@@H](C)O [compound 306] (H-KCNTSTCTVAWLADQITQFSNKDKAQVSPPTEVGPNS[Hyp]-NH2; disulfide 2-7; N-terminus assumed) |
| 24.200 | > 5000 | 0.063 | – | – | – | – | CC[C@H](C)[C@H](NC(=O)[C@H](CCC(N)=O)NC(=O)[C@H](Cc1c[nH]cn1)NC(=O)[C@H](C)NC(=O)[C@H](CC(C)C)NC(=O)[C@H](CCCNC(N)=O)NC(=O)[C@H](CCC(N)=O)NC(=O)[C@@H](NC(=O)[C@@H](NC(=O)[C@@H]1CSSC[C@H](NC(=O)CN)C(=O)N[C@@H](CCCNC(=N)N)C(=O)N[C@@H](Cc2ccccc2)C(=O)NCC(=O)N[C@@H]([C@@H](C)O)C(=O)N1)[C@@H](C)O)C(C)C)C(=O)N[C@@H](Cc1ccc(O)cc1)C(=O)N[C@@H](CCC(N)=O)C(=O)N[C@@H](Cc1ccccc1)C(=O)N[C@H](C(=O)N[C@@H](CC(=O)O)C(=O)N[C@@H](CCCCN)C(=O)N[C@@H](CC(=O)O)C(=O)N[C@@H](CCCCN)C(=O)N[C@@H](CC(=O)O)C(=O)N[C@@H](CC(N)=O)C(=O)N[C@H](C(=O)N[C@@H](C)C(=O)N1CCC[C@H]1C(=O)N[C@@H](CCCNC(=N)N)C(=O)N[C@@H](CO)C(=O)N[C@@H](CC(N)=O)C(=O)N[C@H](C(=O)N[C@@H](CO)C(=O)N1CCC[C@H]1C(=O)N[C@@H](CCC(N)=O)C(=O)NCC(=O)N1C[C@H](O)C[C@H]1C(N)=O)C(C)C)C(C)C)[C@@H](C)O [compound 293] (H-GCRFGTCTVQ[Cit]LAHQIYQFTDKDKDNVAPRSNVSPQG[Hyp]-NH2; disulfide 2-7; N-terminus assumed) |
| 2.700 | – | – | 2980 | approximately 2500 fold | 0.063 | approximately 20 fold | CC[C@H](C)[C@H](NC(=O)[C@H](CCC(N)=O)NC(=O)[C@H](Cc1c[nH]cn1)NC(=O)[C@H](C)NC(=O)[C@H](CC(C)C)NC(=O)[C@H](CCCNC(=N)N)NC(=O)[C@H](CCC(N)=O)NC(=O)[C@@H](NC(=O)[C@@H](NC(=O)[C@@H]1CSSC[C@H](NC(=O)CN)C(=O)N[C@@H](CCCNC(=N)N)C(=O)N[C@@H](Cc2ccccc2)C(=O)NCC(=O)N[C@@H]([C@@H](C)O)C(=O)N1)[C@@H](C)O)C(C)C)C(=O)N[C@@H](Cc1ccc(O)cc1)C(=O)N[C@@H](CCC(N)=O)C(=O)N[C@@H](Cc1ccccc1)C(=O)N[C@H](C(=O)N[C@@H](CC(=O)O)C(=O)N[C@@H](CCCCN)C(=O)N[C@@H](CC(=O)O)C(=O)N[C@@H](CCCCN)C(=O)N[C@@H](CC(=O)O)C(=O)N[C@@H](CC(N)=O)C(=O)N[C@H](C(=O)N[C@@H](C)C(=O)N1CCC[C@H]1C(=O)N[C@@H](CCCNC(=N)N)C(=O)N[C@@H](CO)C(=O)N[C@@H](CCCCN)C(=O)N[C@H](C(=O)N[C@@H](CO)C(=O)N1CCC[C@H]1C(=O)N[C@@H](CCC(N)=O)C(=O)NCC(=O)N1C[C@H](O)C[C@H]1C(N)=O)[C@@H](C)CC)C(C)C)[C@@H](C)O [SEQ ID NO: 169, GCRFGTCTVQRLAHQIYQFTDKDKDNVAPRSKISPQG Hyp] (H-GCRFGTCTVQRLAHQIYQFTDKDKDNVAPRSKISPQG[Hyp]-NH2; disulfide 2-7; N-terminus assumed) |
| 2.800 | > 5000 | 0.006 | – | – | – | – | CC[C@H](C)[C@H](NC(=O)[C@H](CCC(N)=O)NC(=O)[C@H](C)NC(=O)[C@H](C)NC(=O)[C@H](CC(C)C)NC(=O)[C@H](CCCNC(=N)N)NC(=O)[C@H](CCC(N)=O)NC(=O)[C@@H](NC(=O)[C@@H](NC(=O)[C@@H]1CSSC[C@H](NC(=O)[C@@H](N)CCCCN)C(=O)N[C@@H](CC(N)=O)C(=O)N[C@@H]([C@@H](C)O)C(=O)N[C@@H](C)C(=O)N[C@@H]([C@@H](C)O)C(=O)N1)[C@@H](C)O)C(C)C)C(=O)N[C@@H](Cc1ccc(O)cc1)C(=O)N[C@@H](CCC(N)=O)C(=O)N[C@@H](Cc1ccccc1)C(=O)N[C@H](C(=O)N[C@@H](CC(=O)O)C(=O)N[C@@H](CCCCN)C(=O)N[C@@H](CC(=O)O)C(=O)N[C@@H](CCCCN)C(=O)N[C@@H](CC(=O)O)C(=O)N[C@@H](CC(N)=O)C(=O)N[C@H](C(=O)N[C@@H](C)C(=O)N1CCC[C@H]1C(=O)N1CCC[C@H]1C(=O)N[C@H](C(=O)N[C@@H](CC(N)=O)C(=O)N[C@H](C(=O)NCC(=O)N[C@@H](CO)C(=O)N[C@@H](CC(N)=O)C(=O)NCC(=O)N1C[C@H](O)C[C@H]1C(N)=O)C(C)C)[C@@H](C)O)C(C)C)[C@@H](C)O [compound 7] (H-KCNTATCTVQRLAAQIYQFTDKDKDNVAPPTNVGSNG[Hyp]-NH2; disulfide 2-7; N-terminus assumed) |
